Results taken from paper PMC11003477, “Fluorine and chlorine substituted adamantyl-urea as molecular tools for inhibition of human soluble epoxide hydrolase with picomolar efficacy” (Journal of Enzyme Inhibition and Medicinal Chemistry, 2023).
Converted amounts (≈) assume the structure as drawn. Like-named read-outs stand apart in the source and are kept apart here.

What was measured:
[1] = molecular target: T1, human sEH (Homo sapiens, UniProt P34913); details: cited from earlier work
T1 construct: made in house; host or cells: insect cells with baculovirus (given both as High Five cells and as Spodoptera frugiperda 21)
T1 sequence (P34913 1-555): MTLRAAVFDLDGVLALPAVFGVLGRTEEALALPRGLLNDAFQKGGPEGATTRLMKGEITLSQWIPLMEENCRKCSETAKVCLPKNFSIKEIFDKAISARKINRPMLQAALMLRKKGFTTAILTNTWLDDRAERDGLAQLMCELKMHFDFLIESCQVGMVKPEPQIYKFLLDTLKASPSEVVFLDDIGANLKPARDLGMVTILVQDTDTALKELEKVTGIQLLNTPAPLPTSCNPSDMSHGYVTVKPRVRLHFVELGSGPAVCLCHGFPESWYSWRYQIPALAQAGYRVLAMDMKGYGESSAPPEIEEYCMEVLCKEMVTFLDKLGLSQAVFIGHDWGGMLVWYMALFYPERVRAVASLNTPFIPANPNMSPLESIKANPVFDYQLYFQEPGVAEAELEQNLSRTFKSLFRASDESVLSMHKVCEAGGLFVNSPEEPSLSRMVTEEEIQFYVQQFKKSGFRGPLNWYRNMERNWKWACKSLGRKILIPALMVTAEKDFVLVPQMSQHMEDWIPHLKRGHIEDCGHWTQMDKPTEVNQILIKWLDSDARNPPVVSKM

[2] = molecular target: T1, human sEH; assay: Human sEH inhibition, kinetic fluorescent assay (CMNPC assay); type: biochemical
Experimental: Recombinant human and recombinant rat sEH were produced in insect High Five cells using recombinant baculovirus expression vectors, and purified by affinity chromatography as reported previously.[31]^,[32] […] Human sEH was obtained by expressing cDNA in the baculovirus system in the cell line Spodoptera frugiperda 21.
Determination of inhibitory potency (IC50) by fluorescent assay (CMNPC assay)[27]
The enzyme (ca. 1 nM human sEH) was incubated at 30 °C with inhibitors ([I]final = 0.4–100,000 nM) for 5 min in 100 mM sodium phosphate buffer (200 μL, pH 7.4) containing 0.1 mg mL^−1 of BSA and 1% of DMSO. The substrate (cyano(2-methoxynaphthalen-6-yl)methyl trans-(3-phenyloxyran-2-yl)methylcarbonate, CMNPC) was then added ([S]final = 5 μM). The activity was assessed by measuring the appearance of the fluorescent 6-methoxynaphthaldehyde product ([…]) at 30 °C during a 10 min incubation (Spectramax M2; Molecular Device, Inc., Sunnyvale, CA).

[3] = Aqueous solubility by turbidimetric assay; type: physicochemical; details: aqueous buffer, kinetic from dmso stock, sodium phosphate buffer (pH 7.4, 0.1 M) containing 1% of DMSO, read-out: Saq (aqueous solubility)
Experimental: Solubilities were measured in sodium phosphate buffer (pH 7.4, 0.1 M) containing 1% of DMSO by turbidimetric assay.

[4] = CMNPC fluorescent assay, means of three independent experiments, measurement limit 0.04 nM, read-out: IC50

Structure (SMILES) | IC50 ([1]; chlorine derivative of t-AUCB without methylene bridge) | IC50 [2, 4] | solubility [3] | melting point | IC50 ([2]; value below the accuracy limit of the assay (0.04 nM), read-out: IC50 as measured, before reduction to the measurement limit) | IC50 ([1]; earlier version of the assay with a measurement limit of 0.4 nM)
O=C(NC12CC3CC(CC(Cl)(C3)C1)C2)N[C@H]1CC[C@H](Oc2ccc(C(=O)O)cc2)CC1 [Compound 1c] | 1.4 nM |  |  |  |  | 
O=C(NCC12CC3CC(CC(F)(C3)C1)C2)N[C@H]1CC[C@H](Oc2ccc(C(=O)O)cc2)CC1 [Compound 9] |  | 0.6 nM | 150 ± 20 µM (≈ 66.7 µg/mL) | 85 to 86 °C |  | 
O=C(NCC12CC3CC(CC(Cl)(C3)C1)C2)N[C@H]1CC[C@H](Oc2ccc(C(=O)O)cc2)CC1 [Compound 10] |  | < 0.04 nM | 160 ± 20 µM (≈ 73.8 µg/mL) | 192 to 193 °C |  | 
O=C(NCCNC(=O)NCC12CC3CC(CC(F)(C3)C1)C2)NCC12CC3CC(CC(F)(C3)C1)C2 [Compound 11a] |  | 9.2 nM | 150 ± 20 µM (≈ 71.8 µg/mL) | 78 to 79 °C |  | 
O=C(NCCCNC(=O)NCC12CC3CC(CC(F)(C3)C1)C2)NCC12CC3CC(CC(F)(C3)C1)C2 [Compound 11b] |  | 1.8 nM | 150 ± 20 µM (≈ 73.9 µg/mL) | 87 to 88 °C |  | 
O=C(NCCCCNC(=O)NCC12CC3CC(CC(F)(C3)C1)C2)NCC12CC3CC(CC(F)(C3)C1)C2 [Compound 11c] |  | 0.5 nM | 180 ± 20 µM (≈ 91.2 µg/mL) | 142 to 143 °C |  | 
O=C(NCCCCCNC(=O)NCC12CC3CC(CC(F)(C3)C1)C2)NCC12CC3CC(CC(F)(C3)C1)C2 [Compound 11d] |  | 0.4 nM | 140 ± 20 µM (≈ 72.9 µg/mL) | 75 to 76 °C |  | 
O=C(NCCCCCCNC(=O)NCC12CC3CC(CC(F)(C3)C1)C2)NCC12CC3CC(CC(F)(C3)C1)C2 [Compound 11e] |  | < 0.04 nM | 150 ± 20 µM (≈ 80.2 µg/mL) | 82 to 83 °C |  | 
O=C(NCCCCCCCNC(=O)NCC12CC3CC(CC(F)(C3)C1)C2)NCC12CC3CC(CC(F)(C3)C1)C2 [Compound 11f] |  | < 0.04 nM | 200 ± 20 µM (≈ 110 µg/mL) | 77 to 78 °C |  | 
O=C(NCCCCCCCCNC(=O)NCC12CC3CC(CC(F)(C3)C1)C2)NCC12CC3CC(CC(F)(C3)C1)C2 [Compound 11g] |  | < 0.04 nM | 180 ± 20 µM (≈ 101 µg/mL) | 95 to 96 °C |  | 
O=C(NCCCCCCCCCNC(=O)NCC12CC3CC(CC(F)(C3)C1)C2)NCC12CC3CC(CC(F)(C3)C1)C2 [Compound 11h] |  | 0.05 nM | 200 ± 20 µM (≈ 115 µg/mL) | 73 to 74 °C |  | 
O=C(NCCCCCCCCCCNC(=O)NCC12CC3CC(CC(F)(C3)C1)C2)NCC12CC3CC(CC(F)(C3)C1)C2 [Compound 11i] |  | 0.05 nM | 150 ± 20 µM (≈ 88.6 µg/mL) | 76 to 77 °C |  | 
O=C(NCCNC(=O)NCC12CC3CC(CC(Cl)(C3)C1)C2)NCC12CC3CC(CC(Cl)(C3)C1)C2 [Compound 12a] |  | 5.1 nM | 60 ± 10 µM (≈ 30.7 µg/mL) | 222 to 223 °C |  | 
O=C(NCCCNC(=O)NCC12CC3CC(CC(Cl)(C3)C1)C2)NCC12CC3CC(CC(Cl)(C3)C1)C2 [Compound 12b] |  | < 0.04 nM | 80 ± 10 µM (≈ 42 µg/mL) | 194 to 195 °C |  | 
O=C(NCCCCNC(=O)NCC12CC3CC(CC(Cl)(C3)C1)C2)NCC12CC3CC(CC(Cl)(C3)C1)C2 [Compound 12c] |  | < 0.04 nM | 60 ± 10 µM (≈ 32.4 µg/mL) | 213 to 214 °C |  | 
O=C(NCCCCCNC(=O)NCC12CC3CC(CC(Cl)(C3)C1)C2)NCC12CC3CC(CC(Cl)(C3)C1)C2 [Compound 12d] |  | < 0.04 nM | 70 ± 10 µM (≈ 38.8 µg/mL) | 157 to 158 °C | 0.002 nM | 
O=C(NCCCCCCNC(=O)NCC12CC3CC(CC(Cl)(C3)C1)C2)NCC12CC3CC(CC(Cl)(C3)C1)C2 [Compound 12e] |  | < 0.04 nM | 60 ± 10 µM (≈ 34.1 µg/mL) | 148 to 149 °C |  | 
O=C(NCCCCCCCNC(=O)NCC12CC3CC(CC(Cl)(C3)C1)C2)NCC12CC3CC(CC(Cl)(C3)C1)C2 [Compound 12f] |  | < 0.04 nM | 80 ± 10 µM (≈ 46.5 µg/mL) | 164 to 165 °C |  | 
O=C(NCCCCCCCCNC(=O)NCC12CC3CC(CC(Cl)(C3)C1)C2)NCC12CC3CC(CC(Cl)(C3)C1)C2 [Compound 12g] |  | 0.1 nM | 60 ± 10 µM (≈ 35.7 µg/mL) | 187 to 188 °C |  | 
O=C(NCCCCCCCCCCNC(=O)NCC12CC3CC(CC(Cl)(C3)C1)C2)NCC12CC3CC(CC(Cl)(C3)C1)C2 [Compound 12i] |  | < 0.04 nM | 60 ± 10 µM (≈ 37.4 µg/mL) | 189 to 190 °C |  | 
O=C(NCCCCCCNC(=O)NCC12CC3CC(CC(C3)C1)C2)NCC12CC3CC(CC(C3)C1)C2 [DAMH, 1,1'-(hexane-1,6-diyl)bis(3-(adamantan-1-ylmethyl)urea), reference compound] |  | 0.4 nM | 65 ± 5 µM (≈ 32.4 µg/mL) |  |  | 1 nM
